Test results taken from patent publication US8802405B2, “Ethanologenic Clostridium species, Clostridium coskatii” (Coskata, Inc., priority 2010, dated 2014).

Columns and labels:
C. ljungdahlii PETC [1] = assay: Growth on various substrates (carbon substrate utilization); type: cell-based, Clostridium ljungdahlii PETC; conditions: 1 g/L carbon source, N2:CO2 (80%:20%), OD600
Method: (§1) Growth was measured spectrophotometrically at 600 nm (Spectronic 20D; Milton Roy). Carbon substrate utilization was based upon growth after consecutive transfers in media containing 1 g/L of each carbon source. For carbon substrates, screening was performed under an atmosphere of N2: CO2 (80%:20%). A positive growth response was recorded for an OD600 exceeding 0.2 AU. For citrate, additional ^13C-labeled isotope experiments were conducted to determine the nature of products by analysis of final 0.2 μm-filtered product samples by carbon NMR using a Bruker UltraShield Avance 400 MHz nuclear magnetic resonance spectrometer.

C. coskatii PS02 [2] = assay: as above; type: cell-based, Clostridium coskatii (PS02); conditions: for Growth on substrate: C. coskatii PS02, 1 g/L carbon source, N2:CO2 (80%:20%), OD600
Method: as §1

C. autoethangenum [3] = assay: as above; type: cell-based, Clostridium autoethanogenum; conditions: C. autoethangenum; 1 g/L carbon source; N2:CO2 (80%:20%); OD600
Method: as §1

C. coskatii PS02 [4] = assay: as above; type: cell-based; conditions: Clostridium coskatii (PS02); absence of yeast extract
C. ragsdalei [5] = assay: as above; type: cell-based, Clostridium ragsdalei; conditions: 1 g/L carbon source, N2:CO2 (80%:20%), OD600
Method: as §1

C. ljungdahlii PETC [6] = assay: Antibiotic susceptibility, growth at 100 μg/mL antibiotic; type: cell-based, Clostridium ljungdahlii PETC; conditions: for Antibiotic susceptibility pattern (+ indicates growth): C. ljungdahlii PETC, antibiotic 100 μg/ml, 37% CO, 35% H2, 22% CO2, balance N2, OD600; for Resistance to antibiotic (in words): Clostridium ljungdahlii PETC, 100 μg/mL
Method: (§2) The antibiotic susceptibility of Clostridium coskatii (PS02) was evaluated in Acetogen C3 media against 17 antibiotics at a concentration of 100 μg/mL (Table G). Clostridium coskatii (PS02) was resistant to erythromycin, nalidixic acid, spectinomycin, colistin, penicillin, streptomycin, and chloramphenicol. Three antibiotics differentiated C. coskatii from three ethanologenic Clostridia: C. ljungdahlii PETC, C. ragsgalei, and C. autoethanogenum. These differentiating antibiotics included, erythromycin, carbenicillin, and chloramphenicol (Table J).
(§3) Antibiotic susceptibility was based upon growth in media containing 100 μg/mL of each antibiotic. The atmosphere was 37% CO, 35% H2, 22% CO2 with a balance gas of N2. A positive growth response was recorded for an OD600 exceeding 0.2 AU.

C. coskatii PS02 [7] = assay: as above; type: cell-based, Clostridium coskatii (PS02); conditions: Acetogen C3 media; for Antibiotic susceptibility pattern (+ indicates growth): C. coskatii PS02, antibiotic 100 μg/ml, 37% CO, 35% H2, 22% CO2, balance N2, OD600; for Resistance to antibiotic (in words): Clostridium coskatii (PS02), 100 μg/mL
Method: as §2, §3

[8] = system: Clostridium coskatii (PS02)
Text: In general, fermentation will be allowed to proceed until a desired level of product such as ethanol is produced in the culture media. Typically, this level of ethanol is in the range of at least 15 grams/liter of culture medium to 50 grams/liter, with a level of at least 30 grams/liter being preferable. […] In addition, continuous culture techniques exist which allow the continual replenishment of fresh culture medium with concurrent removal of used medium, including any liquid products therein (i.e. the chemostat mode).

[9] = at 37° C.; cited from earlier work
C. ragsdalei [10] = assay: Antibiotic susceptibility, growth at 100 μg/mL antibiotic; type: cell-based, Clostridium ragsdalei; conditions: antibiotic 100 μg/ml, 37% CO, 35% H2, 22% CO2, balance N2, OD600
Method: as §2, §3

C. autoethangenum [11] = assay: as above; type: cell-based, Clostridium autoethanogenum; conditions: antibiotic 100 μg/ml, 37% CO, 35% H2, 22% CO2, balance N2, OD600
Method: as §2, §3

[12] = system: Clostridium coskatii (PS02); remark: listed apart in the source

[C-]#[O+] [CO]
Growth on substrate (C. ljungdahlii PETC [1]): + (A positive growth response was recorded for an OD600 exceeding 0.2 AU) | Growth on substrate (C. coskatii PS02 [2]): + (A positive growth response was recorded for an OD600 exceeding 0.2 AU) | Growth on substrate (C. autoethangenum [3]): + (A positive growth response was recorded for an OD600 exceeding 0.2 AU) | Chemolithoautotrophic growth (in words) (C. coskatii PS02 [4]): occurred | Growth on substrate (C. ragsdalei [5]): + (A positive growth response was recorded for an OD600 exceeding 0.2 AU)

CC1(C)S[C@@H]2[C@H](NC(=O)C(C(=O)O)c3ccccc3)C(=O)N2[C@H]1C(=O)O (stereo partly drawn) [Carbenicillin]
Antibiotic susceptibility pattern (+ indicates growth) (C. ljungdahlii PETC [6]): + (+ indicates growth) | Resistance to antibiotic (in words) (C. ljungdahlii PETC [6]): Resistance | Antibiotic susceptibility pattern (+ indicates growth) (C. coskatii PS02 [7]): + (+ indicates growth) | Resistance to antibiotic (in words) (C. coskatii PS02 [7]): Resistance

O=C(N[C@H](CO)[C@H](O)c1ccc([N+](=O)[O-])cc1)C(Cl)Cl [Chloramphenicol]
Antibiotic susceptibility pattern (+ indicates growth) (C. coskatii PS02 [7]): + (+ indicates growth) | Resistance to antibiotic (in words) (C. coskatii PS02 [7]): resistant

CC[C@H]1OC(=O)[C@H](C)[C@@H](O[C@H]2C[C@@](C)(OC)[C@@H](O)[C@H](C)O2)[C@H](C)[C@@H](O[C@@H]2O[C@H](C)C[C@H](N(C)C)[C@H]2O)[C@](C)(O)C[C@@H](C)C(=O)[C@H](C)[C@@H](O)[C@]1(C)O [Erythromycin]
Antibiotic susceptibility pattern (+ indicates growth) (C. ljungdahlii PETC [6]): + (+ indicates growth) | Resistance to antibiotic (in words) (C. ljungdahlii PETC [6]): Resistance | Antibiotic susceptibility pattern (+ indicates growth) (C. coskatii PS02 [7]): + (+ indicates growth) | Resistance to antibiotic (in words) (C. coskatii PS02 [7]): resistant

CCO [Ethanol]
Growth on substrate (C. ljungdahlii PETC [1]): + (A positive growth response was recorded for an OD600 exceeding 0.2 AU) | Growth on substrate (C. coskatii PS02 [2]): + (A positive growth response was recorded for an OD600 exceeding 0.2 AU) | Growth on substrate (C. autoethangenum [3]): + (A positive growth response was recorded for an OD600 exceeding 0.2 AU) | Ethanol concentration in which the organism remains viable and will grow [8]: at least 60 grams/liter | Growth on substrate (C. ragsdalei [5]): + (A positive growth response was recorded for an OD600 exceeding 0.2 AU)

O=S(=O)(O)CCN1CCOCC1 [MES, 2-(N-morpholino)ethanesulfonic acid]
pKa [9]: 5.97

CCn1cc(C(=O)O)c(=O)c2ccc(C)nc21 [Nalidixic acid]
Antibiotic susceptibility pattern (+ indicates growth) (C. ljungdahlii PETC [6]): + (+ indicates growth) | Antibiotic susceptibility pattern (+ indicates growth) (C. ragsdalei [10]): + (+ indicates growth) | Antibiotic susceptibility pattern (+ indicates growth) (C. autoethangenum [11]): + (+ indicates growth) | Antibiotic susceptibility pattern (+ indicates growth) (C. coskatii PS02 [7]): + (+ indicates growth) | Resistance to antibiotic (in words) (C. coskatii PS02 [7]): resistant

O=S(=O)(O)CCN1CCN(CCS(=O)(=O)O)CC1 [PIPES, piperazine-N,N′-bis(2-ethanesulfonic acid]
pKa [9]: 6.66

CN[C@@H]1[C@H](O)[C@H](NC)[C@H]2O[C@@]3(O)C(=O)C[C@@H](C)O[C@H]3O[C@@H]2[C@H]1O [Spectinomycin]
Antibiotic susceptibility pattern (+ indicates growth) (C. ljungdahlii PETC [6]): + (+ indicates growth) | Antibiotic susceptibility pattern (+ indicates growth) (C. ragsdalei [10]): + (+ indicates growth) | Antibiotic susceptibility pattern (+ indicates growth) (C. autoethangenum [11]): + (+ indicates growth) | Antibiotic susceptibility pattern (+ indicates growth) (C. coskatii PS02 [7]): + (+ indicates growth) | Resistance to antibiotic (in words) (C. coskatii PS02 [7]): resistant

[H]/N=C(/N)N[C@H]1[C@H](O)[C@@H](O)[C@H](O[C@@H]2O[C@@H](C)[C@](O)(C=O)[C@H]2O[C@@H]2O[C@@H](CO)[C@H](O)[C@@H](O)[C@@H]2NC)[C@@H](N/C(N)=N\[H])[C@@H]1O [Streptomycin]
Antibiotic susceptibility pattern (+ indicates growth) (C. ljungdahlii PETC [6]): + (+ indicates growth) | Antibiotic susceptibility pattern (+ indicates growth) (C. ragsdalei [10]): + (+ indicates growth) | Antibiotic susceptibility pattern (+ indicates growth) (C. autoethangenum [11]): + (+ indicates growth) | Antibiotic susceptibility pattern (+ indicates growth) (C. coskatii PS02 [7]): + (+ indicates growth) | Resistance to antibiotic (in words) (C. coskatii PS02 [7]): resistant

O=C[C@H](O)[C@@H](O)[C@H](O)CO [Xylose]
Growth on substrate (C. ljungdahlii PETC [1]): + (A positive growth response was recorded for an OD600 exceeding 0.2 AU) | Growth on substrate (C. coskatii PS02 [2]): + (A positive growth response was recorded for an OD600 exceeding 0.2 AU) | Chemoorganotrophic growth on substrate (in words) (C. coskatii PS02 [2]; Clostridium coskatii (PS02)): growth was observed | Growth on substrate (C. autoethangenum [3]): + (A positive growth response was recorded for an OD600 exceeding 0.2 AU) | Growth on substrate (C. ragsdalei [5]): + (A positive growth response was recorded for an OD600 exceeding 0.2 AU)

CC(=O)O [acetic acid]
Concentration of undissociated acetic acid at which cell growth was significantly inhibited [12]: exceeded 50 mM

Colistin
Antibiotic susceptibility pattern (+ indicates growth) (C. ljungdahlii PETC [6]): + (+ indicates growth) | Antibiotic susceptibility pattern (+ indicates growth) (C. ragsdalei [10]): + (+ indicates growth) | Antibiotic susceptibility pattern (+ indicates growth) (C. autoethangenum [11]): + (+ indicates growth) | Antibiotic susceptibility pattern (+ indicates growth) (C. coskatii PS02 [7]): + (+ indicates growth) | Resistance to antibiotic (in words) (C. coskatii PS02 [7]): resistant

Penicillin
Antibiotic susceptibility pattern (+ indicates growth) (C. ljungdahlii PETC [6]): + (+ indicates growth) | Antibiotic susceptibility pattern (+ indicates growth) (C. ragsdalei [10]): + (+ indicates growth) | Antibiotic susceptibility pattern (+ indicates growth) (C. autoethangenum [11]): + (+ indicates growth) | Antibiotic susceptibility pattern (+ indicates growth) (C. coskatii PS02 [7]): + (+ indicates growth) | Resistance to antibiotic (in words) (C. coskatii PS02 [7]): resistant

Tris(hydroxymethyl)aminomethane
pKa [9]: 7.72
